From patent US20020032330A1, “Propionic acid derivatives” (priority 1996, published 2002) come the findings set out here.

One may read the melting point as the temperature, or range, at which the solid turns liquid.

One data set concerns KKA^y mouse. The data set is described as follows: Hypoglycemic and hypolipidemic effect in KKA^y mouse (oral, once a day for three days). Type of data set: in vivo. As to conditions: KKA^y mice, blood 18 hours after final administration. As to the method:
The hypoglycemic effect and hypolipidemic effect were examined using KKA^y mouse which was known as insulin-independent diabetic animal. A group of KKA^y mice (9 to 11 week age) were divided into several groups based on plasma glucose concentration. Each group included mice having an equal plasma glucose concentration. To the mouse was orally administered a compound of the invention in the form of suspension in a 1% methylcellulose solution. The administration was performed once a day and for a period of three days. To the control (mouse having been administered no hypoglycemic agent) was orally administered a 1% methylcellulose solution in the same manner.
After 18 hours from the final administration, blood was collected, and the plasma glucose concentration and the triglyceride concentration were measured. The measurements were performed using commercially available measuring kits (Glucose CII-TestWako and Triglyceride G-TestWako, respectively, both available from Wako Chemicals Co., Ltd.).
The plasma glucose concentration and the triglyceride concentration were examined for each of the divided mouse groups, and their ratio (%) per the corresponding values obtained in the control was calculated.
The same tests were also performed using the comparison compounds, that is, troglitazone and pioglitazone hydrochloride, which were known as pharmaceuticals for treating diabetes.

As to `O=C(O)C(Cc1cnc2ccc(OCc3ccc(C(F)(F)F)cc3)cc2c1)Sc1ccccc1` (centres unmarked) [Compound 1, 3-[6-[(4-trifluoromethyl)benzyloxy]-3-quinolyl]-2-(phenylthio) propionic acid], in the data set on KKA^y mouse (dosage 100 mg/kg), the “Plasma glucose concentration (% per control)” value is listed as 68 % per control and the “Triglyceride concentration (% per control)” value amounted to 60 % per control.

As to `COCCOC(Cc1cc2cc(OCc3ccc(C(F)(F)F)cc3)ccc2[nH]1)C(=O)O` (centres unmarked) [Compound 2, 2-(2-methoxyethoxy)-3-[5-[(4-trifluoro-methyl)benzyloxy]-2-indolyl]propionic acid], in the data set with KKA^y mouse (dosage 30 mg/kg), the “Plasma glucose concentration (% per control)” value is given as 53 % per control and the “Triglyceride concentration (% per control)” value came out at 17 % per control.

For the compound `CCOC(Cc1cnc2ccc(OCc3ccc(Cl)cc3)cc2c1)C(=O)O` (centres unmarked) [Compound 3, 3-[6-(4-chlorobenzyloxy)-3-quinolyl]-2-ethoxypropionic acid], in the data set with KKA^y mouse (dosage 30 mg/kg), the “Plasma glucose concentration (% per control)” value is 63 % per control and the “Triglyceride concentration (% per control)” value came out at 66 % per control.

For the compound `CCOC(Cc1cnc2cc(OCc3ccc(Cl)cc3)ccc2c1)C(=O)O` (centres unmarked) [Compound 4, 3-[7-(4-chlorobenzyloxy)-3-quinolyl]-2-ethoxypropionic acid], in the data set on KKA^y mouse (dosage 30 mg/kg), the “Plasma glucose concentration (% per control)” value turned out to be 58 % per control and the “Triglyceride concentration (% per control)” value is 61 % per control.

For the compound `O=C(O)C(Cc1cnc2cc(OCc3ccc(Cl)cc3)ccc2c1)Oc1ccccc1` (centres unmarked) [Compound 5, 3-[7-(4-chlorobenzyloxy)-3-quinolyl]-2-phenoxypropionic acid], in the data set on KKA^y mouse (dosage 30 mg/kg), the “Plasma glucose concentration (% per control)” value was 77 % per control and the “Triglyceride concentration (% per control)” value was found to be 81 % per control.

Regarding `Cc1oc(-c2ccccc2)nc1CCc1noc2cc(CC(Sc3ccccc3)C(=O)O)ccc12` (centres unmarked) [Compound 6, 2-phenylthio-3-[3-[2-(2-phenyl-5-methyl-4-oxazolyl)ethyl]-1,2-benzisoxazol-6-yl]-propionic acid], in the data set with KKA^y mouse (dosage 100 mg/kg), the “Plasma glucose concentration (% per control)” value is recorded as 46 % per control and the “Triglyceride concentration (% per control)” value came out at 31 % per control.

Take `CCOC(Cc1ccc2c(CCc3nc(-c4ccccc4)oc3C)noc2c1)C(=O)O` (centres unmarked) [Compound 7, 2-ethoxy-3-[3-[2-(2-phenyl-5-methyl-4-oxazolyl)ethyl]-1,2-benzisoxazol-6-yl]-propionic acid]: the “Plasma glucose concentration (% per control)” value in the data set with KKA^y mouse (dosage 1 mg/kg) is 76 % per control; in the data set with KKA^y mouse (dosage 3 mg/kg) it was 61 % per control; in the data set on KKA^y mouse (dosage 10 mg/kg), 60 % per control. In addition, the “Triglyceride concentration (% per control)” value in the data set with KKA^y mouse (dosage 1 mg/kg) is reported as 87 % per control; in the data set on KKA^y mouse (dosage 3 mg/kg), 65 % per control; in the data set on KKA^y mouse (dosage 10 mg/kg) it was 45 % per control.

As for `CCCSC(Cc1cnc2cc(OCc3ccc(Cl)cc3)ccc2c1)C(=O)O` (centres unmarked) [Example 2, 3-[7-(4-Chlorobenzyloxy)-3-quinolyl]-2-(propylthio) propionic acid], the melting point was in the range of 50 to 60 °C.

In turn, `COCCOC(Cc1cnc2cc(OCc3ccc(Cl)cc3)ccc2c1)C(=O)O` (centres unmarked) [Example 6, 3-[7-(4-Chlorobenzyloxy)-3-quinolyl]-2-(2-methoxyethoxy) propionic acid] registered a melting point of 110 to 113 °C.

In turn, `COCCOC(Cc1cnc2ccc(OCc3ccc([N+](=O)[O-])cc3)cc2c1)C(=O)O` (centres unmarked) [Example 7, 2-(2-Methoxyethoxy)-3-[6-(4-nitrobenzyloxy)-3-quinolyl]propionic acid] had a melting point of 146 to 148 °C.

Turning to `CCc1ccc(CCOc2ccc(CC3SC(=O)NC3=O)cc2)nc1.Cl` (centres unmarked) [Pioglitazone hydrochloride, reference compound], in the data set with KKA^y mouse (dosage 30 mg/kg), the “Plasma glucose concentration (% per control)” value was 68 % per control and the “Triglyceride concentration (% per control)” value was 84 % per control. Moreover, in the data set with KKA^y mouse (dosage 100 mg/kg), the “Plasma glucose concentration (% per control)” value was found to be 65 % per control and the “Triglyceride concentration (% per control)” value was 69 % per control.

For `Cc1c(C)c2c(c(C)c1O)CCC(C)(COc1ccc(CC3SC(=O)NC3=O)cc1)O2` (centres unmarked) [Troglitazone, reference compound], the “Plasma glucose concentration (% per control)” value in the data set with KKA^y mouse (dosage 30 mg/kg) is 84 % per control; in the data set on KKA^y mouse (dosage 100 mg/kg), 68 % per control. Moreover, the “Triglyceride concentration (% per control)” value in the data set on KKA^y mouse (dosage 30 mg/kg) turned out to be 99 % per control; in the data set on KKA^y mouse (dosage 100 mg/kg) it was 101 % per control.
